Laboratory results as given in ChEMBL document CHEMBL1155596, “8-O-Methylsclerotiorinamine, antagonist of the Grb2-SH2 domain, isolated from Penicillium multicolor” (J Nat Prod, 2000).

Columns and labels:
[1] = target: Growth factor receptor-bound protein 2 (Mus musculus) (UniProt Q60631); assay: Inhibition of Shc-Grb2 interaction in mouse B104-1-1 cells by immunoblotting; assay type: cell-based; set-up: scale not given: the % may be the effect or the level left
[2] = Growth inhibition of mouse B104-1-1 cells after 48 hrs by WST1 assay; assay type: cell-based
[3] = target: Growth factor receptor-bound protein 2 (Homo sapiens, UniProt P62993); assay: Inhibition of GST tagged Grb2 SH2 domain binding to Shc-derived [3H]phosphopeptide

Growth factor receptor-bound protein 2 (Mus musculus), sequence (Q60631 whole entry): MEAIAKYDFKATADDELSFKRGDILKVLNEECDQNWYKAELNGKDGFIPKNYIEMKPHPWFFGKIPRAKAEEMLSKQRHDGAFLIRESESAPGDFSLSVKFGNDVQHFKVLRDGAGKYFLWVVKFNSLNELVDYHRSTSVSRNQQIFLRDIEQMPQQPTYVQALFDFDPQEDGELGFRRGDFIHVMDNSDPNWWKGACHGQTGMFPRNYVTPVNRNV

Activity [1]: 50%
IC50 [3]: 5.3 µM
SMILES: CCC(C)/C=C(C)/C=C/c1cc2c(cn1)=C(OC)[C@@](C)(OC(C)=O)C(=O)C=2Cl (stereo partly drawn)
GI50 at 48 h [2]: 50 µM
